# Positions of bridges follow the written chain, without caps; N, C: chain ends. Non-standard residues stand in square brackets, D forms with d. Residues, ends and D or L forms follow the SMILES beside them. *: point of attachment. pY = N[C@@H](Cc1ccc(OP(=O)(O)O)cc1)C(=O)O; O(2-Aminobenzoyl) = Nc1ccccc1C(=O)O*; X9 = O=S(=O)(O*)c1cccc2cccnc12; X13 = Nc1cc2ccccc2cc1C(=O)O*; X2 = O=C(O*)c1cc2ccccc2[nH]1; X3 = O=C(O*)c1cnc2ccccc2c1; X7 = O=C(O*)c1cc2ccccc2cn1; X8 = Nc1cc(N)cc(C(=O)O*)c1; X12 = Nc1ccccc1C(=O)OCCN*; X5 = O=C(O*)C1Cc2ccccc2N1; Ac6c = NC1(C(=O)O)CCCCC1; X11 = Nc1ccc(C(=O)O*)cc1; Ac5c = NC1(C(=O)O)CCCC1; X1 = Nc1ccccc1C(=O)OCN*; X6 = Nc1cccc(C(=O)O*)c1; X10 = Nc1ncccc1C(=O)O*; X4 = O=C(O*)c1ccccc1O; Acm = CC(=O)NC*
# Molecular target: EGFR (UniProt P00533)
# Sequence (P00533 whole entry, looked up): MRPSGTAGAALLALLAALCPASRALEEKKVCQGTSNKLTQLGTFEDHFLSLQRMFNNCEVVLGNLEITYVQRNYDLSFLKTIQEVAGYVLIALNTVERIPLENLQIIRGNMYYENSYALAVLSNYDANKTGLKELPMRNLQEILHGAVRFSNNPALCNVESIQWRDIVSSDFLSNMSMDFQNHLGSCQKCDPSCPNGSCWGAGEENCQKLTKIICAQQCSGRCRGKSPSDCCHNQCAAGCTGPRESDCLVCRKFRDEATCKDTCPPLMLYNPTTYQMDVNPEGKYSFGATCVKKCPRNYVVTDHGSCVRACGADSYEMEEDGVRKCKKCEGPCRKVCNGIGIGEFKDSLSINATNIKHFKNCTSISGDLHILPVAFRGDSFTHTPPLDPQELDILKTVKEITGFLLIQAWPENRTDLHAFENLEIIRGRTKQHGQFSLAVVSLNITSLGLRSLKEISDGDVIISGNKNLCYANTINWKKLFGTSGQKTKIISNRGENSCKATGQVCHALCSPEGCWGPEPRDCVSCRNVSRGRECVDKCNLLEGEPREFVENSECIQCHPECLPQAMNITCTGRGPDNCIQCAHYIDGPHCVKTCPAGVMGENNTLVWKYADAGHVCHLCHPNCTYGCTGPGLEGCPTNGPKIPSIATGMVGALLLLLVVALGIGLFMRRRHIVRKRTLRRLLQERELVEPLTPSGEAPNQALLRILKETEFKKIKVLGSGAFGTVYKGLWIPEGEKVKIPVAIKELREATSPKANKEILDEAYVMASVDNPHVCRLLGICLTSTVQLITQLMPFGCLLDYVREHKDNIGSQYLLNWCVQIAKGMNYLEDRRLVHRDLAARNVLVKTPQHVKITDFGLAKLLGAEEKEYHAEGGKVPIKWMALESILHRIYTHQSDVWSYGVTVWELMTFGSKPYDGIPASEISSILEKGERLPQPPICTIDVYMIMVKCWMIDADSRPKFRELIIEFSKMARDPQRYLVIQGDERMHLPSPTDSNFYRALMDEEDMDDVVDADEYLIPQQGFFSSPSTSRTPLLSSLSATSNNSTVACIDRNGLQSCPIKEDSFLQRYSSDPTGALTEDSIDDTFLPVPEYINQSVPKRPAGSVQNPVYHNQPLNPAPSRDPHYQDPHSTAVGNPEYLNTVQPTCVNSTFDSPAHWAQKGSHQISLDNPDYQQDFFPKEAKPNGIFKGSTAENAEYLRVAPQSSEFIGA
row,Structure (SMILES),IC50 [nM]
1,CC[C@H](C)[C@H](NC(=O)[C@H](CC(N)=O)NC(=O)[C@@H](N)CCC(N)=O)C(=O)N[C@@H](Cc1ccc(OP(=O)(O)O)cc1)C(=O)N[C@@H](CCC(=O)O)C(=O)OC(=O)c1cc2ccccc2cc1N (H-QNI[pY]E-X13),600
2,CC[C@H](C)[C@@H]1NC(=O)[C@H](CC(N)=O)NC(=O)[C@@H](N)CSSC[C@@H](C(=O)OC(=O)c2ccccc2N)NC(=O)[C@H](Cc2ccc(OP(=O)(O)O)cc2)NC1=O (H-CNI[pY]C-{O(2-Aminobenzoyl)}; disulfide 1-5),214
3,NC(=O)C[C@H](N)C(=O)NC1(C(=O)N[C@@H](Cc2ccc(OP(=O)(O)O)cc2)C(=O)N[C@@H](CCC(=O)O)C(=O)OC(=O)c2ccccc2N)CCCC1 (H-N[Ac5c][pY]E-{O(2-Aminobenzoyl)}),64
4,CC[C@H](C)[C@H](NC(=O)[C@H](CC(N)=O)NC(=O)[C@@H](N)CCC(N)=O)C(=O)N[C@@H](Cc1ccc(OP(=O)(O)O)cc1)C(=O)N[C@@H](C)C(=O)OC(=O)c1ccccc1N (H-QNI[pY]A-{O(2-Aminobenzoyl)}),11
5,CC[C@H](C)[C@H](NC(=O)[C@H](CC(N)=O)NC(=O)[C@@H](N)CCC(N)=O)C(=O)N[C@@H](Cc1ccc(OP(=O)(O)O)cc1)C(=O)N[C@@H](CC(C)C)C(=O)OC(=O)c1ccccc1N (H-QNI[pY]L-{O(2-Aminobenzoyl)}),138
6,CC[C@H](C)[C@H](NC(=O)[C@H](CC(N)=O)NC(=O)[C@@H](N)CCC(N)=O)C(=O)N[C@@H](Cc1ccc(OP(=O)(O)O)cc1)C(=O)N[C@@H](CCC(=O)O)C(=O)OC(=O)c1cc(N)cc(N)c1 (H-QNI[pY]E-X8),180
7,CC[C@H](C)[C@H](NC(=O)[C@@H](N)CC(N)=O)C(=O)N[C@@H](Cc1ccc(OP(=O)(O)O)cc1)C(=O)N[C@@H](CCC(=O)O)C(=O)OC(=O)c1ccccc1N (H-NI[pY]E-{O(2-Aminobenzoyl)}),22
8,CC[C@H](C)[C@H](NC(=O)[C@H](CC(N)=O)NC(=O)[C@@H](N)CCC(N)=O)C(=O)N[C@@H](Cc1ccc(OP(=O)(O)O)cc1)C(=O)N[C@@H](CCC(=O)O)C(=O)OC(=O)c1cnc2ccccc2c1 (H-QNI[pY]E-X3),810
9,CC[C@H](C)[C@H](NC(=O)[C@H](CC(N)=O)NC(=O)[C@@H](N)CCC(N)=O)C(=O)N[C@@H](Cc1ccc(OP(=O)(O)O)cc1)C(=O)N[C@H](C(=O)OC(=O)c1ccccc1N)[C@@H](C)CC (H-QNI[pY]I-{O(2-Aminobenzoyl)}),6
10,NC(=O)C[C@H](N)C(=O)NC1(C(=O)N[C@@H](Cc2ccc(OP(=O)(O)O)cc2)C(=O)N[C@@H](CCC(=O)O)C(=O)OC(=O)c2ccccc2N)CCCCC1 (H-N[Ac6c][pY]E-{O(2-Aminobenzoyl)}),14
11,CC[C@H](C)[C@H](NC(=O)[C@H](CC(N)=O)NC(=O)[C@@H](N)CCC(N)=O)C(=O)N[C@@H](Cc1ccc(OP(=O)(O)O)cc1)C(=O)N[C@@H](CCC(=O)O)C(=O)OC(=O)c1ccccc1N (H-QNI[pY]E-{O(2-Aminobenzoyl)}),22
12,CC[C@H](C)[C@H](NC(=O)[C@H](CC(N)=O)NC(=O)[C@@H](N)CCC(N)=O)C(=O)N[C@@H](Cc1ccc(OP(=O)(O)O)cc1)C(=O)N[C@@H](CCC(=O)O)C(=O)OC(=O)c1ccccc1O (H-QNI[pY]E-X4),780
13,CC[C@H](C)[C@H](N)C(=O)N[C@H](C(=O)N[C@@H](Cc1ccc(OP(=O)(O)O)cc1)C(=O)N[C@@H](CC(=O)O)C(=O)OC(=O)c1ccccc1N)[C@@H](C)CC (H-II[pY]D-{O(2-Aminobenzoyl)}),230
14,CC[C@H](C)[C@H](NC(=O)[C@H](CC(N)=O)NC(=O)[C@@H](N)CCC(N)=O)C(=O)N[C@@H](Cc1ccc(OP(=O)(O)O)cc1)C(=O)N[C@@H](CCC(=O)O)C(=O)NCCOC(=O)c1ccccc1N (H-QNI[pY]E-X12),130
15,NC(=O)CC[C@H](N)C(=O)N[C@@H](CC(N)=O)C(=O)N[C@H]1CSSC[C@@H](C(=O)OC(=O)c2ccccc2N)NC(=O)[C@H](Cc2ccc(OP(=O)(O)O)cc2)NC1=O (H-QNC[pY]C-{O(2-Aminobenzoyl)}; disulfide 3-5),570
16,CC[C@H](C)[C@H](NC(=O)[C@H](CC(N)=O)NC(=O)[C@@H](N)CSCNC(C)=O)C(=O)N[C@@H](Cc1ccc(OP(=O)(O)O)cc1)C(=O)N[C@@H](CSCNC(C)=O)C(=O)OC(=O)c1ccccc1N,96
17,CC[C@H](C)[C@H](NC(=O)[C@H](CC(N)=O)NC(=O)[C@@H](N)CCC(N)=O)C(=O)N[C@@H](Cc1ccc(OP(=O)(O)O)cc1)C(=O)N[C@@H](CCC(=O)O)C(=O)OC(=O)c1cccnc1N (H-QNI[pY]E-X10),480
18,CC[C@H](C)[C@@H]1NC(=O)[C@H](CC(N)=O)NC(=O)[C@H](CCC(N)=O)NC(=O)[C@@H](N)CSSC[C@@H](C(=O)OC(=O)c2ccccc2N)NC(=O)[C@H](Cc2ccc(OP(=O)(O)O)cc2)NC1=O (H-CQNI[pY]C-{O(2-Aminobenzoyl)}; disulfide 1-6),15
19,CC[C@H](C)[C@H](NC(=O)[C@H](CC(N)=O)NC(=O)[C@@H](N)CCC(N)=O)C(=O)N[C@@H](Cc1ccc(OP(=O)(O)O)cc1)C(=O)N[C@@H](CCC(=O)O)C(=O)OC(=O)c1cc2ccccc2cn1 (H-QNI[pY]E-X7),550
20,CC[C@H](C)[C@H](NC(=O)[C@H](CC(N)=O)NC(=O)[C@@H](N)CCC(N)=O)C(=O)N[C@@H](Cc1ccc(OP(=O)(O)O)cc1)C(=O)N[C@@H](CCC(=O)O)C(=O)OC(=O)c1ccc(N)cc1 (H-QNI[pY]E-X11),230
21,CC(=O)NCSC[C@H](NC(=O)[C@H](CC(N)=O)NC(=O)[C@@H](N)CCC(N)=O)C(=O)N[C@@H](Cc1ccc(OP(=O)(O)O)cc1)C(=O)N[C@@H](CSCNC(C)=O)C(=O)OC(=O)c1ccccc1N (H-QNC(Acm)[pY]C(Acm)-{O(2-Aminobenzoyl)}),3140
22,CC[C@H](C)[C@H](NC(=O)[C@H](CC(N)=O)NC(=O)[C@@H](N)CCC(N)=O)C(=O)N[C@@H](Cc1ccc(OP(=O)(O)O)cc1)C(=O)N[C@H](C(=O)OC(=O)c1ccccc1N)C(C)C (H-QNI[pY]V-{O(2-Aminobenzoyl)}),106
23,CC[C@H](C)[C@H](NC(=O)[C@H](CC(N)=O)NC(=O)[C@@H](N)CCC(N)=O)C(=O)N[C@@H](Cc1ccc(OP(=O)(O)O)cc1)C(=O)N[C@@H](CCC(=O)O)C(=O)OC(=O)c1cc2ccccc2[nH]1 (H-QNI[pY]E-X2),200
24,CC[C@H](C)[C@H](NC(=O)[C@H](CC(N)=O)NC(=O)[C@H](N)CSCNC(C)=O)C(=O)N[C@@H](Cc1ccc(OP(=O)(O)O)cc1)C(=O)N[C@@H](CSCNC(C)=O)C(=O)OC(=O)c1ccccc1N,272
25,CC[C@H](C)[C@H](NC(=O)[C@H](CC(N)=O)NC(=O)[C@@H](N)CCC(N)=O)C(=O)N[C@@H](Cc1ccc(OP(=O)(O)O)cc1)C(=O)NCOC(=O)c1ccccc1N (H-QNI[pY]-X1),6
26,CC[C@H](C)[C@H](NC(=O)[C@H](CC(N)=O)NC(=O)[C@@H](N)CCC(N)=O)C(=O)N[C@@H](Cc1ccc(OP(=O)(O)O)cc1)C(=O)N[C@@H](CCC(=O)O)C(=O)OC(=O)C1Cc2ccccc2N1 (some centres undefined) (H-QNI[pY]E-X5),74
27,CC[C@H](C)[C@H](NC(=O)[C@H](CC(N)=O)NC(=O)[C@@H](N)CCC(N)=O)C(=O)N[C@@H](Cc1ccc(OP(=O)(O)O)cc1)C(=O)N[C@H](C(=O)OS(=O)(=O)c1cccc2cccnc12)[C@@H](C)CC (H-QNI[pY]I-X9),230
28,CC[C@H](C)[C@H](NC(=O)[C@H](CC(N)=O)NC(=O)[C@@H](N)CCC(N)=O)C(=O)N[C@@H](Cc1ccc(OP(=O)(O)O)cc1)C(=O)N[C@@H](CCC(=O)O)C(=O)OC(=O)c1cccc(N)c1 (H-QNI[pY]E-X6),57
29,CC[C@H](C)[C@H](NC(=O)[C@@H](N)CC(N)=O)C(=O)N[C@@H](Cc1ccc(OP(=O)(O)O)cc1)C(=O)N[C@@H](Cc1ccccc1)C(=O)OC(=O)c1ccccc1N (H-NI[pY]F-{O(2-Aminobenzoyl)}),54

# Source: the Kinase Knowledgebase extract (Sharma et al. 2016)
